Active and inactive are the calls of the source. The calls are words filed in the database; no cut-off is given here.

The test system of one experiment is Spinacia oleracea. The experiment can be described thus: Inhibition of Spinacia oleracea (spinach) chloroplast isoleucyl tRNA synthetase at 1 uM.
A further experiment deals with Poaceae. The experiment can be described thus: Herbicidal activity against Poaceae (grass) weeds. The class given is functional, organism-based.
Experiment [1] is described as follows: Herbicidal activity against broadleaf weeds. The class given is functional.

For `COC(=O)/C=C(/C)Cc1cccc(C[C@H]2O[C@@H]2[C@@H](C)[C@H](C)O)c1`, in the experiment on Spinacia oleracea, the inhibition (in general, the change of the read-out against control, counted positive when it falls) is “inactive”. Besides, the outcome (in the experiment with Poaceae; in experiment [1]) was inactive.

With `COC(=O)/C=C(/C)Cc1cccc(C[C@@H]2O[C@H]2[C@@H](C)[C@H](C)O)c1`, the inhibition result in the experiment with Spinacia oleracea is “inactive”. Further, the outcome (in the experiment with Poaceae; in experiment [1]) was inactive.

For `COC(=O)/C=C(/C)Cc1cccc(C/C=C/[C@@H](C)[C@H](C)O)c1`, the inhibition result with Spinacia oleracea was “inactive”. In addition, the result (with Poaceae; in experiment [1]) was inactive.

As to `CCOC(=O)c1cccc(-c2cccc(C/C=C/[C@@H](C)[C@H](C)O)c2)c1`, the inhibition entry with Spinacia oleracea was “inactive”. In addition, the outcome (in the experiment with Poaceae; in experiment [1]) was inactive.

`COC(=O)/C=C(\C)Cc1cccc(C/C=C/[C@@H](C)[C@H](C)O)c1`: the inhibition entry in the experiment on Spinacia oleracea was “inactive”. For the same compound, the result (in the experiment on Poaceae; in experiment [1]) was inactive.

As to `CCOC(=O)/C=C(\C)C[C@H]1OC[C@H](C/C=C/[C@@H](C)[C@H](C)O)CO1`, the inhibition entry with Spinacia oleracea was “inactive”. In addition, the result (in the experiment with Poaceae; in experiment [1]) was inactive.

Regarding `CCOC(=O)/C=C(\C)C[C@H]1OC[C@@H](C/C=C/[C@@H](C)[C@H](C)O)CO1`, in the experiment with Spinacia oleracea, the inhibition result was “inactive”. Besides, the outcome (in the experiment with Poaceae; in experiment [1]) was inactive.

As for `COC(=O)/C=C(\C)Cc1cccc(C[C@H]2O[C@@H]2[C@@H](C)[C@H](C)O)c1`, the inhibition result in the experiment with Spinacia oleracea is “inactive”. Also, the outcome (with Poaceae; in experiment [1]) was inactive.

The compound `C/C(=C\C(=O)OCCCCCCCCC(=O)O)C[C@@H]1OC[C@H](C[C@@H]2O[C@H]2[C@@H](C)[C@H](C)O)[C@@H](O)[C@H]1O` gave an inhibition in the experiment on Spinacia oleracea of 75%.

`CCOC(=O)c1cccc(-c2cccc(C[C@@H]3O[C@H]3[C@@H](C)[C@H](C)O)c2)c1`: in the experiment with Spinacia oleracea, the inhibition entry was “inactive”. Besides, the outcome (with Poaceae; in experiment [1]) was inactive.

Take `CCOC(=O)/C=C(/C)C[C@H]1OC[C@H](C/C=C/[C@@H](C)[C@H](C)O)CO1`: the inhibition entry in the experiment with Spinacia oleracea is “inactive”. In addition, the outcome (with Poaceae; in experiment [1]) was inactive.

Consider `CCOC(=O)c1cccc(-c2cccc(C[C@H]3O[C@@H]3[C@@H](C)[C@H](C)O)c2)c1`, for which the inhibition result with Spinacia oleracea was “inactive”. The outcome (in the experiment with Poaceae; in experiment [1]) was inactive.

`COC(=O)/C=C(\C)Cc1cccc(C[C@@H]2O[C@H]2[C@@H](C)[C@H](C)O)c1`: the inhibition entry in the experiment on Spinacia oleracea was “inactive”. The outcome (in the experiment with Poaceae; in experiment [1]) was inactive.

The values above are taken from ChEMBL document CHEMBL3046851, “Synthesis of analogues of monic acids A and C: Potential herbicides and inhibitors of isoleucyl tRNA synthetase” (Bioorg Med Chem Lett, 1996).
